# Tests used:
# [1] = biological target: T1, FAK phosphorylation at Y397 (pFAK^Y397) (Homo sapiens, UniProt Q05397); assay: FAK phosphorylation at Y397 (pFAK Y397) in ovarian cancer cells; format: cell-based
# T1 construct: endogenous in cells; host or cells: SKOV3-IP1 and HeyA8 cells
# SKOV3-IP1 cells [2] = assay: Migration of SKOV3-IP1 cells; format: cell-based, human; details: p<0.001
# [3] = system: SKOV3-Ip1 / HeyA8 tumor xenograft; assay: Combination study, intraperitoneal ovarian tumor xenograft models in nude mice; format: in vivo; details: pazopanib 100 mg/kg oral daily
# Procedure: Tumor cells were injected intraperitoneally into nude mice. For the first study, mice were inoculated with 1,000,000 SKOV3-Ip1 cells. For the second study, mice were inoculated with 250,000 HeyA8 cells. At the time of inoculation, mice were randomized into groups to be treated by oral gavage and intraperitoneal injection. The animals were grouped as described below. The criteria for end point was animals in any group being moribund. At the time of dissection, animals were sacrificed by cervical dislocation and necropsy immediately performed. Tumor nodules were counted and aggregate tumor weight (g) was recorded. Tumors were fixed in 10% formalin, and fresh tumor was flash-frozen for future analysis.
# The goal of this study was to determine the in vivo effects of each of pazopanib, the FAK inhibitor, and docetaxel, alone and in combinations. Nude mice were inoculated with tumor as described above and randomized to the groups below. The following doses of each inhibitor were used: FAK-inhibitor, 75 mg/kg, oral, daily; pazopanib, 100 mg/kg, oral, daily; docetaxel, 35 ug, IP, weekly. […] Tumor nodules were counted and aggregate tumor weight (g) was recorded. […]
# In vitro dose-response, in vivo tumor growth and scoring of the immunohistochemistry are presented as mean±Standard Error. Statistical significance was assessed by student's T-test and P≦0.05 was considered to be significant. […]
# SKOV3-IP1 cells [4] = assay: Invasion of SKOV3-IP1 cells; format: cell-based, human; details: p<0.001
# T1 sequence (Q05397 whole entry): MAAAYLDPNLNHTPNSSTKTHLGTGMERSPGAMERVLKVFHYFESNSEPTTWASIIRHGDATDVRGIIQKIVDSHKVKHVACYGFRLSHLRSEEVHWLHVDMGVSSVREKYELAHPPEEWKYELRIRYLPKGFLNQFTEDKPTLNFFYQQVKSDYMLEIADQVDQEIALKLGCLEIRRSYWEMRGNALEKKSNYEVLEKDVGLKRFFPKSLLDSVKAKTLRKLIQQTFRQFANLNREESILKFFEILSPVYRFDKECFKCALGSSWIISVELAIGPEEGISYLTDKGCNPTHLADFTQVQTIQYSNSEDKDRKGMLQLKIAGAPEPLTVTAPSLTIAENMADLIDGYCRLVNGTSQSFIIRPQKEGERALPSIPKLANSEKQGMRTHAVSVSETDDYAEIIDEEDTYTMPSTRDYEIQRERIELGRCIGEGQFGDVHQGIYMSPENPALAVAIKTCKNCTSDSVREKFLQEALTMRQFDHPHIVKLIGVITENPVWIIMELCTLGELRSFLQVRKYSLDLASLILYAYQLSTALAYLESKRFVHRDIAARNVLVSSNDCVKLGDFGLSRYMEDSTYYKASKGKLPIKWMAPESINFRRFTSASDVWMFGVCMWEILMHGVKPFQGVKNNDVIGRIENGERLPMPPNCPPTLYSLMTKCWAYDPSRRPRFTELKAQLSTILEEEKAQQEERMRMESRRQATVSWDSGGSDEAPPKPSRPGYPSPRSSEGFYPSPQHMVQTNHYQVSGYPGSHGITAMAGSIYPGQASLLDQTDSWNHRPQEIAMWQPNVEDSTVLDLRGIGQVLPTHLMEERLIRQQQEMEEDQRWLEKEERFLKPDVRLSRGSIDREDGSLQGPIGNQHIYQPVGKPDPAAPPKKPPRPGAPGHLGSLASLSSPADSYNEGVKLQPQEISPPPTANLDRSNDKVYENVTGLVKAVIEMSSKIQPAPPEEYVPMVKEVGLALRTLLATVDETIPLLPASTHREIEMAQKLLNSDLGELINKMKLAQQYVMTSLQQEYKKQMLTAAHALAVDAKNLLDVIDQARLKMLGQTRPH
"levels of FAK phosphorylation at Y397 (pFAK^Y397) ([1]; HeyA8 cells, 10 μM)","levels of FAK phosphorylation at Y397 (pFAK^Y397) ([1]; SKOV3-IP1 cells, 1 μM concentration)",SMILES,reduction in migration (SKOV3-IP1 cells [2]),"decrease in mean tumor weight compared to control ([3]; nude mice, i.p. tumor, FAK-inhibitor 75 mg/kg oral daily, docetaxel 35 ug IP weekly)",reduction in invasion (SKOV3-IP1 cells [4]),decrease of MVD ([3]; p<0.01)
reduced levels,reduced levels,"CONC(=O)c1ccccc1Nc1cc(Nc2cc(C)nn2C(C)C)ncc1Cl [FAK-inhibitor, 2-[(5-chloro-2-[[3-methyl-1-(1-methylethyl)-1H-pyrazol-5-yl]amino]-4-pyridinyl)amino]-N-methoxybenzamide]",54%,58%,12.5%,
,,"Cc1ccc(Nc2nccc(N(C)c3ccc4c(C)n(C)nc4c3)n2)cc1S(N)(=O)=O [pazopanib, 5-[[4-[(2,3-dimethyl-2H-indazol-6-yl)methylamino]-2-pyrimidinyl]amino]-2-methylbenzenesulfonamide, reference compound]",,,,49%
